Data from US20230390240A1, “METHODS OF TREATMENT” (Board of Supervisors of Louisiana State University and …, priority 2020, published 2023).
Peptide text beside a SMILES is read from it. * marks the point of attachment. Cbz = O=C(OCc1ccccc1)*

How the values were obtained:
[1] = molecular target: T1, mutated RPE65 (R91W KI mice) (Mus musculus, UniProt Q91ZQ5, R91W); conditions: cited from earlier work
T1 construct: host or cells: R91W knock-in (KI) mice
T1 sequence (Q91ZQ5 1-533 R91W): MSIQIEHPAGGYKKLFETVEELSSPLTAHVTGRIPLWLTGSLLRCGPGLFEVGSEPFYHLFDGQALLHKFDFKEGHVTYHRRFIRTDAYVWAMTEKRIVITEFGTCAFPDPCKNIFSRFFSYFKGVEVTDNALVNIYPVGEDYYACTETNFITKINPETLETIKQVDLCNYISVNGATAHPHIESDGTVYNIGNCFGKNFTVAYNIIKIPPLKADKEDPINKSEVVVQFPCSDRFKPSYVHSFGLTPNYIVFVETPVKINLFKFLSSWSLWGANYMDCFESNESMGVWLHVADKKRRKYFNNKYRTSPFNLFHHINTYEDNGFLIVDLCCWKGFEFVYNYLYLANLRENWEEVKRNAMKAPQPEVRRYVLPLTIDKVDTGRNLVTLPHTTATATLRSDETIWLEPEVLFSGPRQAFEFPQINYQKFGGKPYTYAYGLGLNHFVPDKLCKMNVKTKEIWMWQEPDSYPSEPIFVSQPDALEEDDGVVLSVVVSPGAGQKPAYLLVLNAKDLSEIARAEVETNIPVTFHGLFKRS

[2] = tested on: fatty acid transport protein 4 (FATP4); assay: Immunoblot analysis of FATP4 in the RPE of mice treated daily with drug; format: in vivo, mouse; conditions: one-month-old mice treated daily, oral; Ezetimibe 10 mg/kg, Simvastatin 30 mg/kg; vs DMSO
Excerpt: Actin was detected as the loading control.

[3] = tested on: FATP4 in intestinal cells; conditions: animal studies; cited from earlier work
[4] = tested on: S-opsin in retinal explants; assay: Protease inhibitor assay: immunoblot of S-opsin in retinal explants; format: cell-based, mouse; conditions: 5 hours
Excerpt: OS, outer segments; ONL, Outer nuclear layer; OPL, outer plexiform layer. Scale bar, 20-μm. (B) Percentage of Sopsin mislocalization estimated by dividing S-opsin immunofluorescence in the OPL by the sum of immunofluorescence in the OPL and OS. Note the decrease in S-opsin mislocalization in KI;Fatp4^−/− mice. (C,D) Immunoblot analysis of S-opsin in retinal explants treated with the indicated concentrations of MG132 (C) or pepstatin A (D). DMSO was used in the MG132 and pepstatin A null controls. Histograms show relative immunoblot intensities of S-opsin in MG132-treated and pepstatin A-treated retinas versus DMSO-treated controls. (E) Representative immunoblot analysis of M-opsin in Triton X-100 (Tx)-soluble and -insoluble retinal fractions separated by ultracentrifugation (right panel). […] (F) Percentages of Tx-soluble and -insoluble Mopsin in WT, KI, and KI;Fatp4^−/− mice are estimated from the immunoblot intensities in (E).
Immunoblot analysis Protein samples were separated by SDS-PAGE and transferred to an Immobilon-P membrane. The membrane was incubated in blocking buffer, primary antibody, and horseradish peroxidase-conjugated anti-rabbit or mouse IgG secondary antibody. Antibodies against RPE65 (63), LRAT (64, 65), FATP4 (66), β-actin, rhodopsin, M-opsin (MilliporeSigma Co.), S-opsin (Santa Cruz Biotechnology) were used as the primary antibodies. Immunoblots were visualized with the ECL Prime Western blotting detection reagent and ImageQuant LAS 4000 (48). Signal intensity of each band was quantified using ImageQuant TL software.
Protease inhibitor assay Eyes were enucleated from euthanized 4-week-old mice, and the corneas and lenses were removed. The neural retinas dissected from the eyecups were maintained in the DMEM-F12 medium (Thermo Fisher Scientific Inc.) supplemented with 10% fetal bovine serum and antibiotics in a 5% CO2 incubator at 37° C. After incubating for 5 hours in the presence of a series of increasing concentrations of MG132 (0˜25 μM) or pepstatin A (0˜30 μM), the retinas were subjected to immunoblot analysis.

RPE65 isomerase = molecular target: T2, RPE65 isomerase (Homo sapiens, UniProt Q16518); conditions: in vitro; cited from earlier work
T2 sequence (Q16518 1-533): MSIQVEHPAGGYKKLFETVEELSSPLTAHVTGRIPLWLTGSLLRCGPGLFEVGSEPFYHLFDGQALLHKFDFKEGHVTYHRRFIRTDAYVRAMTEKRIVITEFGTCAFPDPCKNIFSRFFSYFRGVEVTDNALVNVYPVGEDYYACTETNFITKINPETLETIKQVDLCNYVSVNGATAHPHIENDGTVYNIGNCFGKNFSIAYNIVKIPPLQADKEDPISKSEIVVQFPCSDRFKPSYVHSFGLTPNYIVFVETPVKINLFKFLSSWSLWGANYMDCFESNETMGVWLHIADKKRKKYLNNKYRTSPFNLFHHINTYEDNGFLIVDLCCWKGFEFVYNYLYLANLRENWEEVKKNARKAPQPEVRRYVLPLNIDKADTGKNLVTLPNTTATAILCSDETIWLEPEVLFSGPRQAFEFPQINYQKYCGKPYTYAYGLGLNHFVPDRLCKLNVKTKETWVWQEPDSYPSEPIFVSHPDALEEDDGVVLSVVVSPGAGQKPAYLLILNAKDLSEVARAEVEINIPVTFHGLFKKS

O=C(O)CCCc1ccccc1 [4-phenylbutyrate]
elevation of 11cRAL ([1]; KI mice): 96% | function of mutated RPE65; preservation of photoreceptors and vision ([1]; systemic administration, mouse model of LCA): could partially rescue the function of mutated RPE65

O=C1[C@H](CC[C@H](O)c2ccc(F)cc2)[C@@H](c2ccc(O)cc2)N1c1ccc(F)cc1 [Ezetimibe]
expression levels of FATP4 in the retinal pigment epithelium (RPE) [2]: reduced expression levels | expression of FATP4 in intestinal cells [3]: markedly reduced expression of FATP4

CC(C)C[C@@H](C=O)NC(=O)[C@H](CC(C)C)NC(=O)[C@H](CC(C)C)NC(=O)OCc1ccccc1 [MG132] (Cbz-Leu-Leu-Leu-aldehyde)
relative amount of S-opsin, increase vs DMSO-treated retinas ([4]; KI retinas, MG132 (0~25 μM)): 3 fold | relative amount of S-opsin, increase vs DMSO-treated retinas ([4]; KI;Fatp4−/− retinas, MG132 (0~25 μM)): 1.6 fold

CCCCCCCCCCCCCCCCCCCCCCCC(=O)SCCNC(=O)CCNC(=O)[C@H](O)C(C)(C)COP(=O)(O)OP(=O)(O)OC[C@H]1O[C@@H](n2cnc3c(N)ncnc32)[C@H](O)[C@@H]1OP(=O)(O)O [lignoceroyl (C24:0)-CoA]
synthesis of 11-cis-retinol (11cROL) (RPE65 isomerase): inhibited the synthesis

CCCCCCCCCCCCCCCC(=O)SCCNC(=O)CCNC(=O)[C@H](O)C(C)(C)COP(=O)(O)OP(=O)(O)OC[C@H]1O[C@@H](n2cnc3c(N)ncnc32)[C@H](O)[C@@H]1OP(=O)(O)O [palmitoyl (C16:0)-CoA]
synthesis of 11-cis-retinol (11cROL) (RPE65 isomerase): promoted the synthesis

pepstatin A
relative amount of S-opsin, increase vs DMSO-treated retinas ([4]; KI retinas, pepstatin A (0~30 μM)): ~55% | relative amount of S-opsin, increase vs DMSO-treated retinas ([4]; KI;Fatp4−/− retinas, pepstatin A (0~30 μM)): ~43%
